{"source": "paper PMC7765948", "about": "“Spadin Modulates Astrocytic Passive Conductance via Inhibition of TWIK-1/TREK-1 Heterodimeric Channels” (International Journal of Molecular Sciences, 2020)", "key": {"[1]": {"tested_on": "TWIK-1 (K274E)", "conditions": "100 μM quinine; cited from earlier work", "experimental": "(§1) Because of the typical linear I–V relationship of astrocytic passive conductance, it has been speculated that astrocytic passive conductance is carried by non-voltage-gated K^+ channels."}, "[2]": {"tested_on": "astrocytic passive conductance", "conditions": "200 μM quinine; cited from earlier work", "experimental": "as §1"}, "[3]": {"tested_on": "TREK-1", "conditions": "cited from earlier work; for reduction of TREK-1 activity: antidepressants", "experimental": "as §1"}, "[4]": {"tested_on": "astrocytic passive conductance in mouse hippocampal slices", "assay": "Whole-cell patch clamp of astrocytic passive conductance in hippocampal slices", "type": "cell-based, mouse (C57BL/6)", "conditions": "quinidine 200 μM versus spadin 10 μM", "experimental": "Lentiviruses were injected into hippocampal CA1 region (AP: 0.17, ML: 0.17, DV: 0.19) of 7–8 week-old wild-type C57BL/6 mice. The virus-infected mouse brain slices (350 μm) containing the hippocampus were […]. Individual hippocampal slices were transferred to a recording chamber, which was constantly perfused with artificial cerebrospinal fluid (ACSF) recording solution containing (in mM) 130 NaCl, 24 NaHCO3, 3.5 KCl, 1.25 NaH2PO4, 1.5 CaCl2, 1.5 MgCl2, and 10 glucose saturated with 95% O2–5% CO2 at pH 7.4. Brain slices were co-loaded with SR-101 (Sigma Aldrich, St. Louis, MO, USA; 1 mM) dye to identify the location of astrocytes in the CA1 region. The slices were recovered at room temperature for at least 1 h before SR101 incubation and electrophysiological recording. […] Whole-cell patch recordings were performed on hippocampal astrocytes with a voltage-clamp configuration using an Axopatch 700B (Axon Instruments, Union City, CA, USA). All data are presented as means ± standard error of the mean (s.e.m). The significance of data for comparison was assessed by Student’s t-test (paired t-test) or one-way ANOVA followed by Turkey’s post hoc test, and significance levels are given as: n.s: not significant, * p < 0.05, ** p < 0.01, *** p < 0.001, and **** p < 0.0001. […]"}, "[5]": {"conditions": "conventional K^+ channel blockers"}}, "note": "Like-named read-outs stand apart in the source and are kept apart here.", "data": [{"smiles": "C=C[C@H]1C[N@@]2CC[C@H]1C[C@H]2[C@H](O)c1ccnc2ccc(OC)cc12", "note": "[quinine]", "values": [{"measurement": "cloned TWIK-1 (K274E) current", "setting": "[1]", "value": "potently decreases"}, {"measurement": "inhibition of astrocytic passive conductance", "setting": "[2]", "value": 58, "unit": "%"}, {"measurement": "cloned TREK-1 current", "setting": "[3]; 100 μM quinine", "value": "potently decreases"}, {"measurement": "TREK-1 channel activity", "setting": "[3]; high-dose quinine or quinidine", "value": "affected"}]}, {"smiles": "Fc1ccc([C@@H]2CCNC[C@H]2COc2ccc3c(c2)OCO3)cc1", "note": "[paroxetine]", "values": [{"measurement": "reduction of TREK-1 activity", "setting": "[3]", "value": "effective in the reduction of TREK-1 activity"}]}, {"smiles": "CCCCC/C=C\\C/C=C\\C/C=C\\C/C=C\\CCCC(=O)O", "note": "[AA, arachidonic acid]", "values": [{"measurement": "TREK-1 channel activation", "setting": "[3]", "value": "activated"}]}, {"smiles": "CNCCC(Oc1ccc(C(F)(F)F)cc1)c1ccccc1", "note": "(centres unmarked) [Fluoxetine]", "values": [{"measurement": "reduction of TREK-1 activity", "setting": "[3]", "value": "effective in the reduction of TREK-1 activity"}]}, {"smiles": "C=C[C@H]1C[N@@]2CC[C@H]1C[C@@H]2[C@@H](O)c1ccnc2ccc(OC)cc12", "note": "[quinidine]", "values": [{"measurement": "TREK-1 channel activity", "setting": "[3]; high-dose quinine or quinidine", "value": "affected"}, {"measurement": "concentration required for similar inhibition of passive conductance", "setting": "[4]", "value": "required at a much higher concentration than spadin"}]}, {"smiles": "CC[N+](CC)(CC)CC", "note": "[tetraethylammonium]", "values": [{"measurement": "TREK-1 channel activity", "setting": "[3]; [5]", "value": "not"}]}, {"smiles": "Nc1ccncn1", "note": "[4-aminopyrimidine]", "values": [{"measurement": "TREK-1 channel activity", "setting": "[3]; [5]", "value": "not"}]}]}
